Assays:
[1] = system: 27-mer adenosine aptamer (DNA, aptamer) ACCTGGGGGAGTATTGCGGAGGAAGGT; assay: CNT FET aptasensor, Hill-Langmuir fit; conditions: no added salt stated; 2 mM Tris-HCl, pH 7.4; Hill n 0.6 ± 0.08; immobilised aptamer
[2] = system: 35-mer adenosine aptamer (DNA, aptamer) AAAAAAAAAACCTGGGGGAGTATTGCGGAGGAAGG; assay: CNT FET aptasensor, Hill-Langmuir fit; conditions: no added salt stated; 2 mM Tris-HCl, pH 7.4; Hill n 0.2 ± 0.03; immobilised aptamer

- Kd [1]: (1.6 ± 1.4) × 10^−7 M
- Kd [2]: (1.2 ± 1.08) × 10^−9 M
SMILES: Nc1ncnc2c1ncn2[C@@H]1O[C@H](CO)[C@@H](O)[C@H]1O

Source: PMC8468449 (2021)
